Test results: publication PMC4234427 (Journal of Medicinal Chemistry, 2014)

Assays:
hCB2R [1] = target: T1, hCB2R (Homo sapiens, UniProt P34972); experiment: CB2R competitive radioligand binding assay; settings: selectivity ratio
[2] = solubility under the cAMP assay test conditions; type: physicochemical; settings: functional cAMP assay conditions
h-CB2R = h-CB2R (Homo sapiens, UniProt P34972); settings: classification from β-arrestin 2 (and cAMP) assays
hCB2R [3] = target: T1, hCB2R; experiment: forskolin-stimulated cAMP assay; type: cell-based; settings: for cAMP (CB2R) EC50/IC50 (nM): EC50: agonist mode, inhibition of forskolin (10 μM) mediated cAMP production

T1 sequence (P34972 whole entry): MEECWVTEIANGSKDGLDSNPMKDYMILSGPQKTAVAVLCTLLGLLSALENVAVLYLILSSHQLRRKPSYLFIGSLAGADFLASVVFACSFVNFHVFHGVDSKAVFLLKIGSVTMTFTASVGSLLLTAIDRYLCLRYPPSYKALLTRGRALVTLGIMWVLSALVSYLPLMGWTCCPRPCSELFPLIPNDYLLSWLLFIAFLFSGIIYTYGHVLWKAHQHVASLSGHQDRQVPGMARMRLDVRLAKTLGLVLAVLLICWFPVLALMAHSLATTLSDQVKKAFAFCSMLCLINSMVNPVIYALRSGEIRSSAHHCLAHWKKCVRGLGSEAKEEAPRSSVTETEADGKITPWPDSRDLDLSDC
Sequence of h-CB2R (P34972 whole entry): as above

Compound	Ki(CB1)/Ki(CB2) (hCB2R [1])	functional activity at CB2R (h-CB2R)	further results
CC1CCC(NC(=O)c2cc3cccnc3n(CCCC(=O)O)c2=O)CC1 (centres unmarked) [Compound 12, 4-(3-(4-Methylcyclohexylcarbamoyl)-2-oxo-1,8-naphthyridin-1(2H)-yl)butanoic Acid]	>4	–	–
CCOC(=O)CCCn1c(=O)c(C(=O)NC2CCC(C)CC2)cc2cccnc21 (centres unmarked) [Compound 9, Ethyl 4-(3-(4-Methylcyclohexylcarbamoyl)-2-oxo-1,8-naphthyridin-1(2H)-yl)butanoate]	>160	–	–
COc1ccc(-c2cnc3c(c2)cc(C(=O)NC2CCC(C)CC2)c(=O)n3CCN2CCOCC2)cc1 (centres unmarked) [Compound 23, 6-(4-Methoxyphenyl)-N-(4-methylcyclohexyl)-1-(2-morpholinoethyl)-2-oxo-1,2-dihydro-1,8-naphthyridine-3-carboxamide]	>6802	inverse agonists as well as antagonists	solubility under the test conditions [2]: insoluble
CC1CCC(NC(=O)c2cc3cccnc3n(CCO)c2=O)CC1 (centres unmarked) [Compound 3, 1-(2-Hydroxyethyl)-N-(4-methylcyclohexyl)-2-oxo-1,2-dihydro-1,8-naphthyridine-3-carboxamide]	>5	–	–
CC1CCC(NC(=O)c2cc3cccnc3n(CCCCC(=O)O)c2=O)CC1 (centres unmarked) [Compound 13, 5-(3-(4-Methylcyclohexylcarbamoyl)-2-oxo-1,8-naphthyridin-1(2H)-yl)pentanoic Acid]	>7	–	–
CC1CCC(NC(=O)c2cc3cc(Br)cnc3n(CCN3CCOCC3)c2=O)CC1 (centres unmarked) [Compound 18, 6-Bromo-N-(4-methylcyclohexyl)-1-(2-morpholinoethyl)-2-oxo-1,2-dihydro-1,8-naphthyridine-3-carboxamide]	–	inverse agonists as well as antagonists	cAMP (CB2R) EC50/IC50 (nM): IC50 (hCB2R [3]; antagonist mode, inhibition of response to WIN-55,212-2 (30 nM) with forskolin): 59.6 nM
CC1CCC(NC(=O)c2cc3cccnc3n(CCCCO)c2=O)CC1 (centres unmarked) [Compound 5, 1-(4-Hydroxybutyl)-N-(4-methylcyclohexyl)-2-oxo-1,2-dihydro-1,8-naphthyridine-3-carboxamide]	>187	agonists	solubility under the test conditions [2]: insoluble
CC1CCC(NC(=O)c2cc3cccnc3n(CCCCCO)c2=O)CC1 (centres unmarked) [Compound 6, 1-(5-Hydroxypentyl)-N-(4-methylcyclohexyl)-2-oxo-1,2-dihydro-1,8-naphthyridine-3-carboxamide]	>2778	–	–
C[C@H]1CC[C@H](NC(=O)c2cc3cc(-c4ccco4)cnc3n(Cc3ccc(F)cc3)c2=O)CC1 [Compound 22-trans, trans-1-(4-Fluorobenzyl)-6-(furan-2-yl)-N-(4-methylcyclohexyl)-2-oxo-1,2-dihydro-1,8-naphthyridine-3-carboxamide]	>106	–	–
CC1CCC(NC(=O)c2cc3cccnc3n(CCCCCCO)c2=O)CC1 (centres unmarked) [Compound 7, 1-(6-Hydroxyhexyl)-N-(4-methylcyclohexyl)-2-oxo-1,2-dihydro-1,8-naphthyridine-3-carboxamide]	>554	–	–
CC1CCC(NC(=O)c2cc3cc(Br)cnc3n(Cc3ccc(F)cc3)c2=O)CC1 (centres unmarked) [Compound 17, 6-Bromo-1-(4-fluorobenzyl)-N-(4-methylcyclohexyl)-2-oxo-1,2-dihydro-1,8-naphthyridine-3-carboxamide]	–	inverse agonists as well as antagonists	solubility under the test conditions [2]: insoluble
CC1CCC(NC(=O)c2cc3cccnc3n(CCCO)c2=O)CC1 (centres unmarked) [Compound 4, 1-(3-Hydroxypropyl)-N-(4-methylcyclohexyl)-2-oxo-1,2-dihydro-1,8-naphthyridine-3-carboxamide]	>77	–	–
CC1CCC(NC(=O)c2cc3cccnc3n(CCCCF)c2=O)CC1 (centres unmarked) [Compound 14, 1-(4-Fluorobutyl)-1,2-dihydro-N-(4-methylcyclohexyl)-2-oxo-1,8-naphthyridine-3-carboxamide]	–	agonists	cAMP (CB2R) EC50/IC50 (nM): EC50 (hCB2R [3]): 20.6 nM
CC1CCC(NC(=O)c2cc3cccnc3n(CCN3CCOCC3)c2=O)CC1 (centres unmarked) [A1]	–	agonists	cAMP (CB2R) EC50/IC50 (nM): EC50 (hCB2R [3]): 28.0 nM
CCOC(=O)CCn1c(=O)c(C(=O)NC2CCC(C)CC2)cc2cccnc21 (centres unmarked) [Compound 8, Ethyl 3-(3-(4-Methylcyclohexylcarbamoyl)-2-oxo-1,8-naphthyridin-1(2H)-yl)propanoate]	>57	–	–
COC(=O)CCCCn1c(=O)c(C(=O)NC2CCC(C)CC2)cc2cccnc21 (centres unmarked) [Compound 10, Methyl 5-(3-(4-Methylcyclohexylcarbamoyl)-2-oxo-1,8-naphthyridin-1(2H)-yl)pentanoate]	>369	–	–
CC1CCC(NC(=O)c2cc3cc(-c4ccc(F)cc4)cnc3n(Cc3ccc(F)cc3)c2=O)CC1 (centres unmarked) [Compound 21, 1-(4-Fluorobenzyl)-6-(4-fluorophenyl)-N-(4-methyl-cyclohexyl)-2-oxo-1,2-dihydro-1,8-naphthyridine-3-carboxamide]	>4608	–	–
CC1CCC(NC(=O)c2cc3cccnc3n(CCC(=O)O)c2=O)CC1 (centres unmarked) [Compound 11, 3-(3-(4-Methylcyclohexylcarbamoyl)-2-oxo-1,8-naphthyridin-1(2H)-yl)propanoic Acid]	>7	–	–
CC1CCC(NC(=O)c2cc3cccnc3n(Cc3ccc(F)cc3)c2=O)CC1 (centres unmarked) [A2]	–	agonists	cAMP (CB2R) EC50/IC50 (nM): EC50 (hCB2R [3]): 29.6 nM
C[C@H]1CC[C@@H](NC(=O)c2cc3cc(-c4ccco4)cnc3n(Cc3ccc(F)cc3)c2=O)CC1 [Compound 22-cis, cis-1-(4-Fluorobenzyl)-6-(furan-2-yl)-N-(4-methylcyclohexyl)-2-oxo-1,2-dihydro-1,8-naphthyridine-3-carboxamide]	15 022	–	–
